Source: article PMC8820617, “Machine learning-driven identification of drugs inhibiting cytochrome P450 2C9” (PLoS Computational Biology, 2022)
Entries after “also recorded” stand apart in the source; their conditions may differ. Where two headings read alike, the source gives them in different places.

Assays:
CYP2C9 [1] = biological target: T1, CYP2C9 (Homo sapiens, UniProt P11712); test: Inhibition of CYP2C9 activity in HepG2 cells expressing CYP2C9 (P450-Glo CYP2C9 assay with Luciferin-H); settings: for Inhibition of CYP2C9 activity in HepG2 cells (yes/no) / Dose-dependent inhibition (yes/no): HepG2 cells expressing CYP2C9; for Inhibition of CYP2C9 activity in HepG2 cells (yes/no): concentration range with cell viability > 80%; for Dose-dependent inhibition (yes/no): five-step dilution series 0.5 to 50 μM; for Any effect (inhibition of CYP2C9 activity and/or cytotoxicity on HepG2 cells expressing CYP2C9): over the range of concentrations used
T1 sequence (P11712 whole entry): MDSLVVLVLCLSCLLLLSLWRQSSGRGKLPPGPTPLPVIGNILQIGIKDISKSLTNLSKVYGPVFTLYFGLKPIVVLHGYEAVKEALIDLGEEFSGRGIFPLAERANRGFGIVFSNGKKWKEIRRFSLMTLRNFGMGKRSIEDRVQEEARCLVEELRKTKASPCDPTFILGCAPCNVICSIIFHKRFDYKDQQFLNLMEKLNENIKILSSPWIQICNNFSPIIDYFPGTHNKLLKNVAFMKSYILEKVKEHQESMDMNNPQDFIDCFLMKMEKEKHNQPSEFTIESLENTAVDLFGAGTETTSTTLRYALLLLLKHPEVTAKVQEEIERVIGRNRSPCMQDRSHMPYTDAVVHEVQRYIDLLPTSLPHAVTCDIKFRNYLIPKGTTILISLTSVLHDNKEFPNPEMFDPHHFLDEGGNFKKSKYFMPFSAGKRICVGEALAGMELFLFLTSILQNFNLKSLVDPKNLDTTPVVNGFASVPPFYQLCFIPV

CYP2C9 supersomes [2] = biological target: T2, CYP2C9 supersomes (Homo sapiens, UniProt P11712); test: Inhibition of CYP2C9 on recombinant supersomes (diclofenac 4-hydroxylation, LC/MS-MS); settings: for IC50: IC50 values determined with CYP2C9 supersomes, substrate diclofenac 5 μM, recombinant supersomes
T2 sequence (P11712 whole entry): as above
Description: (§1) A CYP2C9-specific substrate (diclofenac) and recombinant supersomes were incubated with and without the study compounds (according to the protocol optimized by the Service Provider Admescope (Finland)). The concentrations of the studied compounds were 0.3, 1, 3, 10, 20, 30, 50, 60, 70, 90 and 100 μM. […] The enzymatic reactions were started after 6 min of preincubation by adding NADPH and terminated after 15 min by adding ice-cold acetonitrile. The supernatant was collected and centrifuged for analyses. The samples were analyzed by LC/MS-MS to determine the level of metabolites in the absence and presence of a candidate molecule. Spiked standard samples were not used, but quantification based on relative peak areas was performed (solvent control = 100%). The disappearance was evaluated as relative LC/MS peak areas, and the 0-min time points were marked as 100%. The disappearance rate was used to calculate the half-life and in vitro clearance. For details of the method, see S2 Text.
(§2) Details of analytical method for inhibition tests using CYP2C9 supersomes and calculation of IC50
(§3) Test compound concentrations: Test compound Test concentrations (µM)
(§4) Diclofenac at 5 µM for CYP2C9
(§5) Substrates and concentrations:
(§6) Instrumentation: Waters Acquity UPLC + Thermo TSQ Endura triple quadrupole MS
(§7) The IC50 value for the test compound was determined by fitting following equation to the data
(§8) A% = percentual activity remaining
(§9) Top = the upper plateau of percentual activity (constrained to 100)
(§10) Bottom = the lower plateau of percentual activity (constrained to 0)
(§11) [I] = inhibitor concentration
(§12) (1 picture or pasted object on this page, not shown here)

[3] = tested on: HepG2 cells expressing CYP2C9; test: Cytotoxicity (MTS assay) in HepG2 cells expressing CYP2C9; settings: for Increased cytotoxicity in HepG2 cells expressing CYP2C9 (yes/no) / % living HepG2 cells expressing CYP2C9 after incubation with the min [c]: MTS assay; for Increased cytotoxicity in HepG2 cells expressing CYP2C9 (yes/no) / min [c]: minimal concentration that increases the cytotoxicity: threshold cell viability 80%; for Increased cytotoxicity in HepG2 cells expressing CYP2C9 (yes/no): compared with wild-type HepG2 cells; for min [c]: minimal concentration that increases the cytotoxicity: HepG2 cells expressing CYP2C9; for % living HepG2 cells expressing CYP2C9 after incubation with the min [c]: at min [c] of the compound
CYP2C9 supersomes [4] = biological target: T2, CYP2C9 supersomes; test: Metabolism assays with recombinant CYP2C9 supersomes (UPLC/HR-MS); settings: incubation with recombinant CYP2C9 supersomes
CYP2C9 [5] = biological target: T1, CYP2C9; test: Inhibition of CYP2C9 on recombinant supersomes (diclofenac 4-hydroxylation, LC/MS-MS); settings: human, recombinant CYP2C9 supersomes, probe diclofenac 5 μM (4-hydroxylation), IC50 values determined with CYP2C9 supersomes, substrate diclofenac 5 μM; recombinant supersomes
Description: as §1, §2, §3, §4, §5, §6, §7, §8, §9, §10, §11, §12

CYP2C9 [6] = biological target: T1, CYP2C9
[7] = tested on: HepG2 cells expressing CYP2C9; settings: human

Molecule	Inhibition of CYP2C9 activity in HepG2 cells (yes/no) (CYP2C9 [1])	Dose-dependent inhibition (yes/no) (CYP2C9 [1])	IC50 (CYP2C9 supersomes [2])	Increased cytotoxicity in HepG2 cells expressing CYP2C9 (yes/no) [3]	min [c]: minimal concentration that increases the cytotoxicity [3]	% living HepG2 cells expressing CYP2C9 after incubation with the min [c] [3]	other results
CCCSc1nc(N[C@@H]2C[C@H]2c2ccc(F)c(F)c2)c2nnn([C@@H]3C[C@H](OCCO)[C@@H](O)[C@H]3O)c2n1 [Ticagrelor]	yes	yes	11.8 µM	no	–	–	–
O=c1[nH]c2ccccc2c(=O)n1CCCN1CCN(c2cccc(Cl)c2)CC1 [Cloperidone]	yes	yes	17.7 µM	yes	100 µM	40%	Inhibition effect on CYP2C9 (in words) (CYP2C9 supersomes [2]; CYP2C9 supersomes): strongly inhibit; Cytotoxicity after incubation with HepG2 cells expressing CYP2C9 (in words) [3]: increased cytotoxicity; Metabolism by CYP2C9 (in words) (CYP2C9 supersomes [4]): metabolized by CYP2C9
CC(C)Oc1ccc(S(=O)(=O)N2CCN(c3ccc(-c4ncco4)c(OCC(=O)O)c3)CC2)cc1 [Asapiprant]	yes	yes	46 µM	no	–	–	–
C[C@H](Nc1ncnc2[nH]cnc12)c1cc2cccc(Cl)c2c(=O)n1-c1ccccc1 [Duvelisib]	yes	yes	52 µM	no	–	–	–
CN(c1nccc(=O)[nH]1)C1CCN(c2nc3ccccc3n2Cc2ccc(F)cc2)CC1 [Mizolastine]	no	no	–	yes	50 µM	60%	–
CC(=O)N1CCN(CCOc2ccc(C3CCN(C4=Nn5c(nnc5C(F)(F)F)CC4)CC3)cc2)CC1 [Azd3514]	no	no	–	yes	20 µM	60%	–
Ciltoprazine	yes	no	–	yes	75 µM	0%	–
COc1ccc(OC(=O)N(CC(=O)O)Cc2ccc(OCCc3nc(-c4ccccc4)oc3C)cc2)cc1 [Muraglitazar]	no	no	–	no	–	–	Any effect (inhibition of CYP2C9 activity and/or cytotoxicity on HepG2 cells expressing CYP2C9) (CYP2C9 [1]): did not show any effect
CN(c1ncccc1CNc1nc(Nc2ccc3c(c2)CC(=O)N3)ncc1C(F)(F)F)S(C)(=O)=O [Pf-562271]	yes	no	–	yes	10 µM	65%	–
CC(C)(C)C(=O)Oc1ccc(S(=O)(=O)Nc2ccccc2C(=O)NCC(=O)O)cc1 [Sivelestat]	no	no	–	no	–	–	Any effect (inhibition of CYP2C9 activity and/or cytotoxicity on HepG2 cells expressing CYP2C9) (CYP2C9 [1]): did not show any effect
Clc1ccc(Nc2nnc(Cc3ccncc3)c3ccccc23)cc1 [Vatalanib]	yes	yes	< 18 µM	yes	20 µM	50%	IC50 at 15 min (CYP2C9 [5]): < 0.3 µM; Inhibition effect on CYP2C9 (in words) (CYP2C9 supersomes [2]; CYP2C9 supersomes): strongly inhibit; Metabolism by CYP2C9 (in words) (CYP2C9 supersomes [4]): metabolized by CYP2C9
Cc1nc(Nc2ncc(C(=O)Nc3c(C)cccc3Cl)s2)cc(N2CCN(CCO)CC2)n1 [Dasatinib]	yes	yes	–	yes	20 µM	45%	–
Bifeprofen	yes	yes	–	yes	75 µM	50%	–
O=C1NCCN1CCN1CCC(c2cn(-c3ccc(F)cc3)c3ccc(Cl)cc23)CC1 [Sertindole]	yes	yes	40 µM	yes	10 µM	60%	–
Cc1ccccc1-n1c(/C=C/c2ccccn2)nc2ccccc2c1=O [Piriqualone]	yes	yes	10.9 µM	yes	75 µM	0%	–
CCN1CCN(Cc2ccc(Nc3ncc(F)c(-c4cc(F)c5nc(C)n(C(C)C)c5c4)n3)nc2)CC1 [Abemaciclib]	no	no	> 100 µM	yes	5 µM	30%	Inhibition effect on CYP2C9 (in words) (CYP2C9 supersomes [2]; CYP2C9 supersomes): no direct inhibition; also recorded: No any inhibition effect; Metabolism by CYP2C9 (in words) (CYP2C9 supersomes [4]): metabolized by CYP2C9
O=C(O[C@H]1CN2CCC1CC2)N(Cc1cc(F)c(F)c(F)c1)c1cccc(F)c1 [Tarafenacin]	–	–	> 100 µM	–	–	–	Inhibition effect on CYP2C9 (in words) (CYP2C9 supersomes [2]; recombinant enzyme): weak inhibition effect; Dose-dependent inhibition (yes/no) (CYP2C9 [6]): no; Inhibition of CYP2C9 activity in HepG2 cells (yes/no) (CYP2C9 [6]): yes; % living HepG2 cells expressing CYP2C9 after incubation with the min [c] [7]: 0%; min [c]: minimal concentration that increases the cytotoxicity [7]: 50 µM
